From US4929639A, “Oxygen-containing heterocyclic compound” (Fujisawa Pharmaceutical Company, Ltd., priority 1988, dated 1990)

Test system: rabbit platelet
Experiment: Effect on 9,11-azo PGH2 induced aggregation of rabbit platelet in vitro
Assay type: cell-based
Conditions: Oryctolagus cuniculus, rabbit PRP, 9,11-azo PGH2 final 1.0 μM, 37° C., 2 minutes preincubation, read-out: IC50 (Inhibition concentration of platelet aggregation by 50%)
From the text: In the following tests, the used 9, 11-azo PGH2 and 9,11-methanoepoxy PGH2 (U46619) are characterized pharmacologically as TXA2 mimetic agents and widely used for evaluating TXA2 antagonism of test compounds (for example, vida The Journal of Pharmacology and Experimental Therapeutics Vol. 234, pp 435-441).
Test 1 (Effect on 9,11-azo PGH2 induced aggregation of rabbit platelet in vitro)
In the in vitro experiments, the blood was collected from the carotid artery of rabbits into plastic vessels containing 0.1 volume of 3.8% aqueous sodium citrate. Platelet rich plasma (PRP) was prepared by centrifugation at 150 g for 15 minutes. Platelet aggregation was investigated using the turbidometric method with an aggregometer (NKK HEMATRACER 1). To the 225 μl of PRP, 25 μl of test compound solution was added, and then stirred at 1000 rpm for 2 minutes at 37° C. To the solution, 5 μl of 9,11-azo PGH2 (final 1.0 μM) was added as an aggregating inducer. IC50 (Inhibition concentration of platelet aggregation by 50%) were graphically determined.

C[C@@H]1OC[C@H](C/C=C\CCCC(=O)O)[C@H](C=NNC(=O)Nc2ccccc2)O1 [Test compound 2]
IC50: 260 nM
